From PubChem BioAssay (NCI)
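Each compound was tested at five concentrations against cells in 96-well plates for 48 hours. The concentration for full growth arrest is given as TGI.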

Legend:
Test in all cases: NCI anticancer screen, dose series, 48 h
DMS 114 small cell lung = tested on: DMS 114 small cell lung
DMS 273 small cell lung = tested on: DMS 273 small cell lung
HS 578T breast = tested on: HS 578T breast
KM20L2 colon = tested on: KM20L2 colon
LXFL 529 NSCLC = tested on: LXFL 529 NSCLC
M19-MEL melanoma = tested on: M19-MEL melanoma
MDA-N = tested on: MDA-N
RXF-631 renal = tested on: RXF-631 renal
XF 498 CNS = tested on: XF 498 CNS

Row | SMILES | TGI (DMS 114 small cell lung) | TGI (DMS 273 small cell lung) | TGI (HS 578T breast) | TGI (KM20L2 colon) | TGI (LXFL 529 NSCLC) | TGI (M19-MEL melanoma) | TGI (MDA-N) | TGI (RXF-631 renal) | TGI (XF 498 CNS)
1 | CN1CCN(C)C12C=c1ccccc1=CC21CC1 | 36.3 µM | > 100 µM | > 31.6 µM | > 58.2 µM | 31.2 µM | 37.1 µM | > 63.9 µM | > 100 µM | 49.5 µM
2 | Cc1cc2c(cc1C)[n+](=O)c(C(=O)C/C(=N/NC(=O)CC#N)C(=O)Nc1ccccc1C(F)(F)F)c(C)n2[O-] | > 100 µM | > 100 µM |  | > 100 µM | > 100 µM | > 100 µM |  | 33.3 µM | > 100 µM
3 | C/C(CC(=O)Nc1cc(Cl)c(Cl)cc1Cl)=N\NC(N)=O | > 100 µM | > 100 µM |  | > 100 µM | > 100 µM | > 100 µM |  | > 100 µM | > 100 µM
4 | Cc1cccc(C)c1NC(=O)C(=O)C1C(=O)NC(=O)NC1=O | > 100 µM | > 100 µM |  | > 100 µM | > 100 µM | > 100 µM |  | > 100 µM | > 100 µM
5 | CCCCN=C(NC#N)NCCCC | > 100 µM | > 100 µM |  | > 100 µM | > 100 µM | > 100 µM |  | > 100 µM | > 100 µM
6 | NC(CCC(=O)NC(CSSCCCCS(=O)O)C(=O)NCC(=O)O)C(=O)O (centres undefined) | > 100 µM | > 100 µM |  | > 100 µM | > 100 µM | > 100 µM |  | > 100 µM | > 100 µM
